The text below walks through data of patent US6806283B2, “Selective serotonin receptor antagonists and therapeutic applications thereof” (Virginia Commonwealth University, priority 2002, dated 2004).

Assay [1] addresses 5-HT2A serotonin receptor (Homo sapiens, UniProt P28223). Kind of assay: 5-HT2A serotonin receptor radioligand binding assay (3H-ketanserin).
Procedure: Binding assays were conducted in which the affinity of each of the compounds of interest for the 5-HT2A serotonin receptor was tested. Assays were conducted with the 5-HT2A receptor in buffer consisting of 50 mM Tris-Cl, 0.5 mM EDTA, 5 mM MgCl2, pH=7.4.
In assay [2] the target is norepinephrine transporter (Homo sapiens, UniProt P23975). Kind of assay: Affinity for norepinephrine transporter. The assay is classed as binding.
Assay [3] has as its target H1 histamine receptor (Homo sapiens, UniProt P35367). The assay is described as follows: H1 histamine receptor radioligand binding assay (3H-pyrilamine). The method, then: Binding assays were also conducted in which the affinity of selected compounds of interest for the H1 histamine receptor was tested. […] The H1 determinations used ^3H-pyrilamine as the radioligand with chlorpheniramine as the reference compound.

The target in assay [4] is dopamine D2 receptor (Homo sapiens, UniProt P14416). Kind of assay: Affinity for dopamine D2 receptor. The assay is classed as binding.
The target in assay [5] is T1, 5-HT2c receptor (Homo sapiens, UniProt P28335).
T1 sequence (P28335 33-458): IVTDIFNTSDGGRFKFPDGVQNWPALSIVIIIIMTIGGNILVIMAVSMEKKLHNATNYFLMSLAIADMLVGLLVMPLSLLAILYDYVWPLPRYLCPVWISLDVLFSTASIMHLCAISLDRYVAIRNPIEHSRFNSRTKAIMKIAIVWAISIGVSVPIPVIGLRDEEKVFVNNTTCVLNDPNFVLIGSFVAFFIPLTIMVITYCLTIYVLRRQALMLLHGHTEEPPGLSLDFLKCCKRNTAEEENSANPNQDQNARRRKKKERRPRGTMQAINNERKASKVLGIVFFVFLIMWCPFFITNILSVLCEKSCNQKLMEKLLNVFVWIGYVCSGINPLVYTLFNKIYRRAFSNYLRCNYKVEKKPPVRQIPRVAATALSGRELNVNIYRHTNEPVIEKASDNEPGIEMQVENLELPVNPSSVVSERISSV
Kind of assay: Affinity for 5-HT2c receptor. The assay is classed as binding.

The target of assay [6] is 5-HT2 receptor (Homo sapiens, UniProt P28223). Kind of assay: Affinity for 5-HT2 receptors. It counts as binding.
Assay [7] deals with serotonin transporter (Homo sapiens, UniProt P31645). Kind of assay: Affinity for serotonin transporter. It counts as binding.
The mark [8] stands for this setting: 3H-pyrilamine radioligand, chlorpheniramine reference, read-out: H1 Ki.
Setting [9] is: in words, read-out: affinity class for histamine H1 receptor.

Read-outs that look alike come from different tables or passages of the source.

5-HT2A serotonin receptor, sequence (P28223 whole entry): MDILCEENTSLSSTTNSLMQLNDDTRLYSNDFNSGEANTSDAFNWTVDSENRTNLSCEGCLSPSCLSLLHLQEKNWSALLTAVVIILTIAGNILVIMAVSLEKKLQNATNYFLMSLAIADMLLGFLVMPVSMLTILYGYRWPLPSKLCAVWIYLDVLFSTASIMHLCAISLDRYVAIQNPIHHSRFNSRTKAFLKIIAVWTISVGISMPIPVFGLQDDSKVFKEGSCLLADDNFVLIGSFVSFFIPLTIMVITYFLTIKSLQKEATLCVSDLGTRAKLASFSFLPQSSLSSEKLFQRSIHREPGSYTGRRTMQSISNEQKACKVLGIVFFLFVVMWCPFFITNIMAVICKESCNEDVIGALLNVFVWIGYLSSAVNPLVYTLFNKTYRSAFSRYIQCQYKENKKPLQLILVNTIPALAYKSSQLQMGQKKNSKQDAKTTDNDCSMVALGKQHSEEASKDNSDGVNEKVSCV
H1 histamine receptor, sequence (P35367 whole entry): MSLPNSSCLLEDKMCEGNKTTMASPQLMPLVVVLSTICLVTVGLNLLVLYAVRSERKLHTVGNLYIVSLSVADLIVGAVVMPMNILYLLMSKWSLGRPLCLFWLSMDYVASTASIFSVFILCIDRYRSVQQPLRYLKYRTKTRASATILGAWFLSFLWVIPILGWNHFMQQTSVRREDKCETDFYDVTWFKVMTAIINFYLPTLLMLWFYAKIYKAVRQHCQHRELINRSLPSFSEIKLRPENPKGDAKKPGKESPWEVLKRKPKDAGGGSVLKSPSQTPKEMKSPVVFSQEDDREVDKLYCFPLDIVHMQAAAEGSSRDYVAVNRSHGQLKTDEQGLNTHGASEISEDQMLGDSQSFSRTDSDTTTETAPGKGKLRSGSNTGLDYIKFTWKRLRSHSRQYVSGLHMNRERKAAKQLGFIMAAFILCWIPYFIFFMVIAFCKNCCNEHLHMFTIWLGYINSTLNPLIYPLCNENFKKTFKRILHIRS
5-HT2 receptor, sequence (P28223 whole entry): as the sequence (P28223 whole entry) above
dopamine D2 receptor, sequence (P14416 whole entry, species assumed): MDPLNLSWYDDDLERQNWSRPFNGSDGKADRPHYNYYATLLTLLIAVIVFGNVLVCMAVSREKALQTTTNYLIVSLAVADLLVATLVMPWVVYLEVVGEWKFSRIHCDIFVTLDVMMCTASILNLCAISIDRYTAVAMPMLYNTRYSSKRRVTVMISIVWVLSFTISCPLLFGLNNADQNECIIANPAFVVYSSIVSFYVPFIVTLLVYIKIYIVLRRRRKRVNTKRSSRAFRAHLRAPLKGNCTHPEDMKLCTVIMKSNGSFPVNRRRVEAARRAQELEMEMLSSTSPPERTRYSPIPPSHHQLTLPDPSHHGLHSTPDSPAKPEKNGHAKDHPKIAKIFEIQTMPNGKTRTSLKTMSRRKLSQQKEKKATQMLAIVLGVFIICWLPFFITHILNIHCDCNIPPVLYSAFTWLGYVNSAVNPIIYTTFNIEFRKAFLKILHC
serotonin transporter, sequence (P31645 whole entry): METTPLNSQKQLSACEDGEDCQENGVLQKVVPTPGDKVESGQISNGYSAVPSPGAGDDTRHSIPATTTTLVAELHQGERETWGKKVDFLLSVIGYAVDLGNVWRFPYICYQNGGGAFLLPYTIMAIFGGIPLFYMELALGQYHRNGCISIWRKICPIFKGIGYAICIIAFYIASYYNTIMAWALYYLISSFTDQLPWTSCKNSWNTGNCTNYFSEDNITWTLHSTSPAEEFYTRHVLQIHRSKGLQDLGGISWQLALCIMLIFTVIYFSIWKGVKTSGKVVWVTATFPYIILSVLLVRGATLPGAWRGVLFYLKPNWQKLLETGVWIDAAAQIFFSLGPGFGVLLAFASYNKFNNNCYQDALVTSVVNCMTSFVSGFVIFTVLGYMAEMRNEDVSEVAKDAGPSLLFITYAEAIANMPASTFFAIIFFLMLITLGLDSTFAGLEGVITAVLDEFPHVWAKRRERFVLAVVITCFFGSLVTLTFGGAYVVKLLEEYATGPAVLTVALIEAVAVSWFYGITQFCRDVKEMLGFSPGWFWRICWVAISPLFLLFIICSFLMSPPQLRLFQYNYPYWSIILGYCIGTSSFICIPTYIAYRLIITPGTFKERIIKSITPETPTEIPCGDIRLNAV
norepinephrine transporter, sequence (P23975 whole entry, species assumed): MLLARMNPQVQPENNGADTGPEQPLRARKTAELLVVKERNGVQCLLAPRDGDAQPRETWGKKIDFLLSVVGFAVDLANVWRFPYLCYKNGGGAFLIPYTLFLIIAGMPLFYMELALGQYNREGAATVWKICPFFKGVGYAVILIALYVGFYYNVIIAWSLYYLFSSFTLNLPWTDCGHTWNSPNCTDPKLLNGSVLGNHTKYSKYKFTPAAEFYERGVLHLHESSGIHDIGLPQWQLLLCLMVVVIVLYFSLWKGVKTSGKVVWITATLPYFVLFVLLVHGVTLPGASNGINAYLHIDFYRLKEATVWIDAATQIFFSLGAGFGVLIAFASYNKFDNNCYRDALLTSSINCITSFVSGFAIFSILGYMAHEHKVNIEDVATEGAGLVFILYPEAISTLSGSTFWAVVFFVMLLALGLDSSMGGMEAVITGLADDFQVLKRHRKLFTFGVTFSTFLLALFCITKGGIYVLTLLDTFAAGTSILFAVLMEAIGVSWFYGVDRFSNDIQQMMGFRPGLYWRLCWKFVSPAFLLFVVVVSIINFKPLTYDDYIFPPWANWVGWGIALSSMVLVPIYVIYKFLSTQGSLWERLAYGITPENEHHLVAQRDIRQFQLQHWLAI

Consider `c1ccc2c(c1)Cc1ccccc1C21CCNC1` [Compound 5, Spiro[9,10-dihydroanthracene]-9,3′-pyrrolidine], for which the Ki in assay [1] was 3.8 nM; in assay [2], above 10000 nM; in assay [3] (setting [8]), 8.5 nM; in assay [3] (setting [9]), at most 100 nM; in assay [4], 5040 nM; in assay [5] it was 1 to 500 nM. The Ki in assay [5] (read-out: Ki for 5-HT2c receptor) was 24 nM; in assay [6], 1 to 500 nM; in assay [6] (read-out: Ki for 5-HT2 receptors), 4 nM; in assay [7] it was above 10000 nM.
In assay [1], `CN1CCC2(C1)c1ccccc1Cc1ccccc12` [Compound 6, Spiro[9,10-dihydroanthracene]-9,3′-(1-methyl)-pyrrolidine] came in with a Ki of 46 nM.
In the case of `c1ccc(CN2CCC3(C2)c2ccccc2Cc2ccccc23)cc1` [Compound 7, Spiro[9,10-dihydroanthracene]-9,3′-(1-benzyl)-pyrrolidine], the Ki in assay [1] amounted to 220 nM.
As to `CC1(C)c2ccccc2C2(CCNC2)c2ccccc21` [Compound 12, Spiro[-(10,10-dimethyl)-9,10-dihydroanthracene]-9,3′-pyrrolidine], the Ki in assay [1] amounted to 68 nM.
For `COc1ccc2c(c1)Cc1ccccc1C21CCN(Cc2ccccc2)C1` (stereo not drawn) [Compound 16, 3-Methoxy-9,9-[spiro-3′-(n-benzyl)-pyrrolidinyl]-9,10-dihydroanthracene], the values for the Ki in assay [1], in assay [3] (setting [8]) and in assay [3] (setting [9]) were 1000 nM, 74 nM and at most 100 nM, respectively.
For `COc1ccc2c(c1)Cc1ccccc1C21CCNC1` (stereo not drawn) [Compound 17, 3-Methoxy-9,9-[spiro-3′-pyrrolidinyl]-9,10-dihydro-anthracene] the same measures were 3.7 nM, 40 nM and at most 100 nM.
`Oc1ccc2c(c1)Cc1ccccc1C21CCN(Cc2ccccc2)C1` (stereo not drawn) [Compound 18, 3-Hydroxy-9,9-[spiro-3′-(n-benzyl)-pyrrolidinyl]-9,10-dihydroanthracene] had a Ki in assay [1] of 330 nM.
Same read-out and setting: to `Oc1ccc2c(c1)Cc1ccccc1C21CCNC1` (stereo not drawn) [Compound 19, Spiro[-(3-hydroxy)-9,10-dihydroanthracene]-9,3′-pyrrolidine] belongs 9.2 nM.
Same read-out and setting: the value for `CCCCCCc1ccc2c(c1)Cc1ccccc1C21CCN(Cc2ccccc2)C1` (stereo not drawn) [Compound 20, 3-n-Hexyl-9,9-[spiro-3′-(n-benzyl)-pyrrolidinyl]-9,10-dihydroanthracene] was 2030 nM.
In the case of `CCCCCCc1ccc2c(c1)Cc1ccccc1C21CCNC1` (stereo not drawn) [Compound 21, 3-n-Hexyl-9,9-[spiro-3′-pyrrolidinyl]-9,10-dihydroanthracene], the Ki is 6 nM in assay [1] and 1600 nM in assay [3] (setting [8]).
With `c1ccc(CCCc2ccc3c(c2)Cc2ccccc2C32CCN(Cc3ccccc3)C2)cc1` (stereo not drawn) [Compound 22, 3-(3-Phenylpropyl)-9,9-[spiro-3′-(n-benzyl)-pyrrolidinyl]-9,10-dihydroanthracene], the Ki in assay [1] amounted to 998 nM.
In assay [1], `c1ccc(CCCc2ccc3c(c2)Cc2ccccc2C32CCNC2)cc1` (stereo not drawn) [Compound 23, 3-(3-Phenylpropyl)-9,9-[spiro-3′-pyrrolidinyl]-9,10-dihydroanthracene] gave a Ki of 3.5 nM.
`c1ccc(-c2ccc3c(c2)Cc2ccccc2C32CCNC2)cc1` (stereo not drawn) [Compound 25, 3-(3-Phenyl)-9,9-[spiro-3′-pyrrolidinyl]-9,10-dihydroanthracene] came in with a Ki in assay [1] of 18 nM.
As for `c1ccc2c(c1)Oc1ccccc1C21CCNC1` [Compound 30, Spiro[xanthenyl]-9,3′-pyrrolidine], the Ki is 40 nM in assay [1], 51 nM in assay [3] (setting [8]) and at most 100 nM in assay [3] (setting [9]).
For the compound `c1ccc2c(c1)Sc1ccccc1C21CCNC1` [Compound 36, Spiro[thioxanthenyl]-9,3′-pyrrolidine], the Ki in assay [1] is 5 nM; in assay [3] (setting [8]), 6 nM; in assay [3] (setting [9]), at most 100 nM.
